Assay results as given in DBAASP.
Values after ≈ are worked out from the molar mass of the structure shown. Values joined by “and” are separate entries in the source; they are usually repeats but may differ in a detail not shown here. Equal values may be shown once. Values belong to the compound of their own block, whether it stands above or below them.

How the values were obtained:
Test in all cases: ≥ marks a high value that may be exact or a test limit, other limits are often not marked, values filed in µg/mL are converted to µM
[1] = test system: Acinetobacter baumannii 97830
[2] = test system: Acinetobacter baumannii 9840
[3] = test system: Acinetobacter baumannii
[4] = test system: Bacillus subtilis ATCC 23857
[5] = test system: Candida albicans NCPF 1467
[6] = test system: Escherichia coli ATCC 25922
[7] = test system: Escherichia coli NCTC 10418
[8] = test system: Pseudomonas aeruginosa 1570
[9] = test system: Pseudomonas aeruginosa 5167
[10] = test system: Pseudomonas aeruginosa ATCC 15692
[11] = test system: Salmonella enterica subsp. enterica serovar Typhimurium ATCC 14028
[12] = test system: Staphylococcus aureus 113
[13] = test system: Staphylococcus aureus 725
[14] = test system: Staphylococcus aureus 75
[15] = test system: Staphylococcus aureus 794
[16] = test system: Staphylococcus aureus 936
[17] = test system: Staphylococcus aureus ATCC 25923
[18] = test system: Staphylococcus aureus ATCC 33591
[19] = test system: Staphylococcus aureus NCTC 10788
[20] = test system: Staphylococcus epidermidis ATCC 12228
[21] = test system: Enterococcus faecium ATCC 35667
[22] = test system: Enterococcus faecium ATCC 51559
[23] = test system: Escherichia coli CGSC 5167
[24] = test system: Klebsiella pneumoniae ATCC 13883
[25] = test system: Klebsiella pneumoniae ATCC 700603
[26] = test system: Pseudomonas aeruginosa ATCC 10145
[27] = test system: Pseudomonas aeruginosa ATCC 27853
[28] = test system: Streptococcus pneumoniae ATCC 33400
[29] = test system: Streptococcus pneumoniae ATCC 700677
[30] = test system: Bacillus anthracis Sterne 34F2
[31] = test system: Bacillus subtilis ATCC 9372
[32] = test system: Bacillus subtilis KCTC 3068
[33] = test system: Burkholderia thailandensis
[34] = test system: Escherichia coli KCTC 1682
[35] = test system: Pseudomonas aeruginosa CCARM 2092
[36] = test system: Pseudomonas aeruginosa CCARM 2095
[37] = test system: Pseudomonas aeruginosa CCARM 2109
[38] = test system: Pseudomonas aeruginosa KCTC 1637
[39] = test system: Salmonella typhimurium KCTC 1926
[40] = test system: Staphylococcus aureus CCARM 3001
[41] = test system: Staphylococcus aureus CCARM 3089
[42] = test system: Staphylococcus aureus CCARM 3543
[43] = test system: Staphylococcus aureus KCTC 1621
[44] = test system: Staphylococcus epidermidis KCTC 1917
[45] = test system: Cupriavidus necator H16
[46] = test system: Escherichia coli BL21(DE3)
[47] = test system: Escherichia coli JM109
[48] = test system: Pseudomonas putida GPp104
[49] = test system: Actinomyces israelii ATCC 12102
[50] = test system: Candida albicans ATCC 26790
[51] = test system: Enterococcus faecalis ATCC 51299
[52] = test system: Fusobacterium nucleatum NCTC 11326
[53] = test system: Porphyromonas gingivalis ATCC 33277
[54] = test system: Staphylococcus aureus CCARM 3090
[55] = test system: Staphylococcus aureus CCARM 3095
[56] = test system: Streptococcus mutans ATCC 25175

SMILES: CC(C)C[C@H](NC(=O)[C@H](CC(C)C)NC(=O)[C@H](CCCCN)NC(=O)[C@H](CCCCN)NC(=O)[C@H](CC(C)C)NC(=O)[C@H](CC(C)C)NC(=O)[C@H](CCCCN)NC(=O)[C@H](CC(C)C)NC(=O)[C@@H](N)Cc1ccccc1)C(N)=O [FLKLLKKLL]
- MIC [1]: 7.17 µM (≈ 7.99 µg/mL)
- MIC [2]: 10.1 µM (≈ 11.3 µg/mL)
- MIC [3]: 10.1 µM (≈ 11.3 µg/mL)
- MIC [4]: 3.59 µM (≈ 4 µg/mL)
- MIC [5]: 7 µM (≈ 7.8 µg/mL)
- MIC [6]: 28.7 µM (≈ 32 µg/mL)
- MIC [7]: 14 µM (≈ 15.6 µg/mL)
- MIC [8]: 7.17 µM (≈ 7.99 µg/mL)
- MIC [9]: 14.3 µM (≈ 16 µg/mL)
- MIC [10]: 7.17 µM (≈ 7.99 µg/mL)
- MIC [11]: 14.3 µM (≈ 16 µg/mL)
- MIC [12]: 7.17 µM (≈ 7.99 µg/mL)
- MIC [13]: 7.17 µM (≈ 7.99 µg/mL)
- MIC [14]: 7.17 µM (≈ 7.99 µg/mL)
- MIC [15]: 14.3 µM (≈ 16 µg/mL)
- MIC [16]: 7.17 µM (≈ 7.99 µg/mL)
- MIC [17]: 14.3 µM (≈ 16 µg/mL)
- MIC [18]: 7.17 µM and 14.3 µM
- MIC [19]: 7 µM (≈ 7.8 µg/mL)
- MIC [20]: 14.3 µM (≈ 16 µg/mL)

SMILES: CC(C)[C@H](NC(=O)[C@H](CCCCN)NC(=O)[C@H](CCCN=C(N)N)NC(=O)[C@H](CCCCN)NC(=O)[C@H](CCCCN)NC(=O)[C@H](CCCCN)NC(=O)[C@@H]1CCCN1C(=O)[C@H](CCC(N)=O)NC(=O)[C@H](CO)NC(=O)[C@H](Cc1c[nH]c2ccccc12)NC(=O)[C@H](CCCCN)NC(=O)[C@@H](NC(=O)[C@H](Cc1c[nH]c2ccccc12)NC(=O)[C@H](Cc1c[nH]c2ccccc12)NC(=O)[C@@H](NC(=O)[C@H](CCCCN)NC(=O)[C@H](Cc1c[nH]c2ccccc12)NC(=O)[C@H](Cc1c[nH]c2ccccc12)NC(=O)[C@@H](NC(=O)[C@H](CCCCN)NC(=O)[C@@H](N)CCCCN)[C@@H](C)O)[C@@H](C)O)[C@@H](C)O)C(=O)O [KKTWWKTWWTKWSQPKKKRKV]
- MIC [30]: ≥ 59 µM
- MIC [31]: 3.3 µM (≈ 9.39 µg/mL)
- MIC [32]: 2 µM (≈ 5.69 µg/mL)
- MIC [33]: ≥ 100 µM
- MIC [34]: 2 µM (≈ 5.69 µg/mL)
- MIC [35]: 8 µM (≈ 22.8 µg/mL)
- MIC [36]: 8 µM (≈ 22.8 µg/mL)
- MIC [37]: 8 µM (≈ 22.8 µg/mL)
- MIC [38]: 2.83 µM (≈ 8.05 µg/mL)
- MIC [39]: 1.41 µM (≈ 4.02 µg/mL)
- MIC [40]: 2 µM (≈ 5.69 µg/mL)
- MIC [41]: 2 µM (≈ 5.69 µg/mL)
- MIC [42]: 1 µM (≈ 2.85 µg/mL)
- MIC [43]: 2 µM (≈ 5.69 µg/mL)
- MIC [44]: 1.41 µM (≈ 4.02 µg/mL)

SMILES: CC[C@H](C)[C@H](NC(=O)[C@H](CC(C)C)NC(=O)[C@H](CCCCN)NC(=O)[C@@H](NC(=O)[C@@H](NC(=O)[C@H](CCCN=C(N)N)NC(=O)[C@@H](N)CCCCN)[C@@H](C)CC)C(C)C)C(=O)N[C@@H](CC(C)C)C(=O)N[C@@H](CCCCN)C(=O)N[C@@H](Cc1c[nH]c2ccccc12)C(=O)N[C@@H](CC(C)C)C(=O)N[C@@H](CCCN=C(N)N)C(N)=O [KRIVKLILKWLR]
- MIC [49]: 2.5 µM (≈ 3.91 µg/mL)
- MIC [32]: 5.66 µM (≈ 8.85 µg/mL)
- MIC [50]: 9.97 µM (≈ 15.6 µg/mL)
- MIC [51]: ≥ 39.9 µM
- MIC [22]: 4 µM (≈ 6.26 µg/mL)
- MIC [34]: 8 µM (≈ 12.5 µg/mL)
- MIC [52]: 4.99 µM (≈ 7.81 µg/mL)
- MIC [53]: 2.5 µM (≈ 3.91 µg/mL)
- MIC [36]: 16 µM (≈ 25 µg/mL)
- MIC [37]: 8 µM (≈ 12.5 µg/mL)
- MIC [38]: 8 µM (≈ 12.5 µg/mL)
- MIC [39]: 2.83 µM (≈ 4.43 µg/mL)
- MIC [41]: 4 µM (≈ 6.26 µg/mL)
- MIC [54]: 8 µM (≈ 12.5 µg/mL)
- MIC [55]: 4 µM (≈ 6.26 µg/mL)
- MIC [44]: 2 µM (≈ 3.13 µg/mL)
- MIC [56]: 2.5 µM (≈ 3.91 µg/mL)

Second part, the compound after the results:

- MIC [21]: 4 µM (≈ 6.24 µg/mL)
- MIC [22]: 2 µM (≈ 3.12 µg/mL)
- MIC [6]: 0.9 µM (≈ 1.4 µg/mL)
- MIC [23]: 0.4 µM (≈ 0.624 µg/mL)
- MIC [24]: 0.3 µM (≈ 0.468 µg/mL)
- MIC [25]: 0.6 µM (≈ 0.937 µg/mL)
- MIC [26]: 2 µM (≈ 3.12 µg/mL)
- MIC [27]: 1.5 µM (≈ 2.34 µg/mL)
- MIC [17]: 6 µM (≈ 9.37 µg/mL)
- MIC [18]: 3 µM (≈ 4.68 µg/mL)
- MIC [28]: 5 µM (≈ 7.8 µg/mL)
- MIC [29]: 4 µM (≈ 6.24 µg/mL)
SMILES: CC[C@H](C)[C@H](NC(=O)[C@H](CCCN=C(N)N)NC(=O)[C@H](CCCN=C(N)N)NC(=O)[C@H](Cc1ccccc1)NC(=O)[C@H](CC(C)C)NC(=O)[C@H](CCCN=C(N)N)NC(=O)[C@@H](N)CCCN=C(N)N)C(=O)N[C@@H](CC(C)C)C(=O)N[C@@H](CCCN=C(N)N)C(=O)N[C@@H](Cc1ccc(O)cc1)C(=O)N[C@@H](CC(C)C)C(N)=O [RRLFRRILRYL]

- MIC [45]: 25 µM (≈ 54.8 µg/mL)
- MIC [46]: 0.313 µM (≈ 0.686 µg/mL)
- MIC [47]: 6.25 µM (≈ 13.7 µg/mL)
- MIC [48]: 6.25 µM (≈ 13.7 µg/mL)
SMILES: CC[C@H](C)[C@H](NC(=O)[C@H](Cc1ccc(O)cc1)NC(=O)[C@@H](NC(=O)[C@@H]1CCCN1C(=O)[C@H](CCCN=C(N)N)NC(=O)[C@@H]1CCCN1C(=O)[C@H](CC(N)=O)NC(=O)[C@@H](N)CCCN=C(N)N)C(C)C)C(=O)N1CCC[C@H]1C(=O)N[C@@H](CCC(N)=O)C(=O)N1CCC[C@H]1C(=O)N[C@@H](CCCN=C(N)N)C(=O)N1CCC[C@H]1C(=O)N1CCC[C@H]1C(=O)N[C@@H](Cc1cnc[nH]1)C(=O)N1CCC[C@H]1C(=O)N[C@@H](CCCN=C(N)N)C(=O)N[C@@H](CC(C)C)C(=O)O [RNPRPVYIPQPRPPHPRL]
